Data taken from PubChem BioAssay (NCI).
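Briefly, cells in 96-well plates were exposed to five compound concentrations for 48 h, and endpoints were estimated by linear interpolation. TGI: total growth inhibition.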

What was measured:
Test in all cases: NCI tumour cell line growth inhibition, 48 h
[1] = system: RXF 393 renal
[2] = system: KM12 colon
[3] = system: MALME-3M melanoma
[4] = system: K-562 leukemia
[5] = system: A549 NSCLC
[6] = system: SK-MEL-5 melanoma
[7] = system: CCRF-CEM leukemia
[8] = system: OVCAR-8 ovarian
[9] = system: CAKI-1 renal
[10] = system: XF 498 CNS
[11] = system: ACHN renal
[12] = system: SK-MEL-2 melanoma
[13] = system: SF-295 CNS
[14] = system: LOX IMVI melanoma
[15] = system: IGROV1 ovarian
[16] = system: HL-60(TB) leukemia
[17] = system: HOP-62 NSCLC
[18] = system: OVCAR-3 ovarian
[19] = system: SN12C renal
[20] = system: OVCAR-5 ovarian
[21] = system: U251 CNS
[22] = system: NCI-H522 lung
[23] = system: NCI-H226 lung
[24] = system: SF-268 CNS
[25] = system: SK-MEL-28 melanoma
[26] = system: COLO 205 colon
[27] = system: EKVX NSCLC
[28] = system: NCI-H460 lung
[29] = system: LXFL 529 NSCLC
[30] = system: SK-OV-3 ovarian
[31] = system: RXF-631 renal
[32] = system: RPMI-8226 leukemia
[33] = system: DMS 273 small cell lung
[34] = system: HCT-15 colon
[35] = system: SR leukemia
[36] = system: TK-10 renal
[37] = system: KM20L2 colon
[38] = system: HCT-116 colon
[39] = system: HT29 colon
[40] = system: A498 renal
[41] = system: 786-0 renal
[42] = system: SNB-19 CNS
[43] = system: SNB-75 CNS
[44] = system: UACC-62 melanoma
[45] = system: DMS 114 small cell lung
[46] = system: SF-539 CNS
[47] = system: HOP-18 NSCLC
[48] = system: DLD-1 colon
[49] = system: OVCAR-4 ovarian
[50] = system: M14 melanoma
[51] = system: NCI-H23 lung
[52] = system: MOLT-4 leukemia
[53] = system: SW-620 colon
[54] = system: SNB-78 CNS
[55] = system: UACC-257 melanoma
[56] = system: HOP-92 NSCLC
[57] = system: HCC-2998 colon
[58] = system: M19-MEL melanoma
[59] = system: UO-31 renal

COc1ccccc1NC(=O)C1=C(C)NC(C)=C(C(=O)Nc2ccccc2OC)C1c1ccc([N+](=O)[O-])cc1
TGI [1]: > 100 µM
TGI [2]: > 100 µM
TGI [3]: > 100 µM
TGI [4]: > 100 µM
TGI [5]: > 100 µM
TGI [6]: > 100 µM
TGI [7]: > 100 µM
TGI [8]: > 100 µM
TGI [9]: > 100 µM
TGI [10]: 33.7 µM
TGI [11]: > 100 µM
TGI [12]: > 100 µM
TGI [13]: 55.9 µM
TGI [14]: > 100 µM
TGI [15]: > 100 µM
TGI [16]: > 100 µM
TGI [17]: > 100 µM
TGI [18]: > 100 µM
TGI [19]: > 100 µM
TGI [20]: 90.8 µM
TGI [21]: > 100 µM
TGI [22]: > 100 µM
TGI [23]: > 100 µM
TGI [24]: > 100 µM
TGI [25]: > 100 µM
TGI [26]: > 100 µM
TGI [27]: > 100 µM
TGI [28]: > 100 µM
TGI [29]: > 100 µM
TGI [30]: > 100 µM
TGI [31]: > 100 µM
TGI [32]: > 100 µM
TGI [33]: > 100 µM
TGI [34]: > 100 µM
TGI [35]: > 100 µM
TGI [36]: > 100 µM
TGI [37]: > 100 µM
TGI [38]: > 100 µM
TGI [39]: > 100 µM
TGI [40]: > 100 µM
TGI [41]: > 100 µM
TGI [42]: > 100 µM
TGI [43]: > 100 µM
TGI [44]: > 100 µM
TGI [45]: > 100 µM
TGI [46]: > 100 µM
TGI [47]: > 100 µM
TGI [48]: > 100 µM
TGI [49]: > 100 µM
TGI [50]: > 100 µM
TGI [51]: > 100 µM
TGI [52]: > 100 µM
TGI [53]: > 100 µM
TGI [54]: > 100 µM
TGI [55]: > 100 µM

CCOC(=O)c1[nH]c(COC(C)=O)c(CCCOC(C)=O)c1CCCOC(C)=O
TGI [1]: > 100 µM
TGI [2]: > 100 µM
TGI [3]: > 100 µM
TGI [4]: > 100 µM
TGI [5]: > 100 µM
TGI [7]: > 100 µM
TGI [8]: > 100 µM
TGI [9]: > 100 µM
TGI [10]: > 100 µM
TGI [11]: > 100 µM
TGI [12]: > 100 µM
TGI [13]: > 100 µM
TGI [14]: > 100 µM
TGI [15]: > 100 µM
TGI [16]: > 100 µM
TGI [17]: > 100 µM
TGI [18]: > 100 µM
TGI [19]: > 100 µM
TGI [20]: > 100 µM
TGI [21]: > 100 µM
TGI [22]: 52.5 µM
TGI [23]: > 100 µM
TGI [24]: > 100 µM
TGI [25]: > 100 µM
TGI [26]: > 100 µM
TGI [27]: > 100 µM
TGI [28]: > 100 µM
TGI [29]: > 100 µM
TGI [30]: > 100 µM
TGI [33]: > 100 µM
TGI [34]: > 100 µM
TGI [35]: > 100 µM
TGI [36]: > 100 µM
TGI [56]: > 100 µM
TGI [37]: > 100 µM
TGI [38]: > 100 µM
TGI [39]: > 100 µM
TGI [40]: > 100 µM
TGI [57]: > 100 µM
TGI [41]: > 100 µM
TGI [42]: > 100 µM
TGI [46]: > 100 µM
TGI [49]: > 100 µM
TGI [51]: > 100 µM
TGI [52]: > 100 µM
TGI [53]: > 100 µM
TGI [54]: > 100 µM
TGI [55]: > 100 µM

O=C(CSc1nnc(-c2ccccc2NC(=O)C(F)(F)F)c(=O)[nH]1)NC(=O)Nc1ccccc1
TGI [1]: > 100 µM
TGI [2]: > 100 µM
TGI [3]: > 100 µM
TGI [4]: > 100 µM
TGI [5]: > 100 µM
TGI [58]: > 100 µM
TGI [7]: > 100 µM
TGI [8]: > 100 µM
TGI [59]: > 100 µM
TGI [9]: > 100 µM
TGI [10]: > 100 µM
TGI [12]: > 100 µM
TGI [13]: > 100 µM
TGI [14]: > 100 µM
TGI [15]: > 100 µM
TGI [17]: > 100 µM
TGI [18]: > 100 µM
TGI [19]: > 100 µM
TGI [20]: > 100 µM
TGI [21]: > 100 µM
TGI [22]: > 100 µM
TGI [23]: > 100 µM
TGI [24]: > 100 µM
TGI [25]: > 100 µM
TGI [26]: > 100 µM
TGI [27]: > 100 µM
TGI [28]: > 100 µM
TGI [29]: > 100 µM
TGI [30]: > 100 µM
TGI [33]: > 100 µM
TGI [34]: > 100 µM
TGI [35]: > 100 µM
TGI [36]: > 100 µM
TGI [56]: > 100 µM
TGI [38]: > 100 µM
TGI [39]: > 100 µM
TGI [57]: > 100 µM
TGI [41]: > 100 µM
TGI [42]: > 100 µM
TGI [43]: 45 µM
TGI [44]: > 100 µM
TGI [46]: > 100 µM
TGI [48]: 44.7 µM
TGI [50]: > 100 µM
TGI [51]: > 100 µM
TGI [52]: > 100 µM
TGI [53]: > 100 µM
TGI [54]: > 100 µM

CCN1CCN(c2ccc(Nc3ccnc4ccc5nn(C)nc5c34)cc2)CC1
TGI [1]: 22.5 µM
TGI [2]: 24 µM
TGI [3]: 30.8 µM
TGI [4]: > 100 µM
TGI [5]: 27.3 µM
TGI [58]: 29.8 µM
TGI [6]: 28.5 µM
TGI [7]: > 100 µM
TGI [8]: 25.3 µM
TGI [59]: 26.7 µM
TGI [9]: 29 µM
TGI [10]: 26.9 µM
TGI [11]: 28 µM
TGI [13]: 25.5 µM
TGI [14]: 20.1 µM
TGI [15]: 39.5 µM
TGI [16]: > 100 µM
TGI [17]: 26.4 µM
TGI [18]: 29.5 µM
TGI [19]: 42.3 µM
TGI [20]: 32.5 µM
TGI [21]: 27 µM
TGI [22]: 23.6 µM
TGI [23]: 26.2 µM
TGI [24]: 29.8 µM
TGI [25]: 30.5 µM
TGI [26]: 18.4 µM
TGI [28]: 17.2 µM
TGI [29]: 23.8 µM
TGI [30]: 31.5 µM
TGI [31]: 23.9 µM
TGI [32]: > 100 µM
TGI [34]: 27.6 µM
TGI [35]: > 100 µM
TGI [36]: 39.4 µM
TGI [56]: 26.5 µM
TGI [37]: 27.4 µM
TGI [38]: 18.1 µM
TGI [39]: 16.6 µM
TGI [57]: 26 µM
TGI [41]: 22.6 µM
TGI [42]: 43.9 µM
TGI [43]: 26.4 µM
TGI [44]: 30.8 µM
TGI [45]: 22.6 µM
TGI [46]: 27.2 µM
TGI [48]: 28.3 µM
TGI [49]: 26.1 µM
TGI [50]: 30 µM
TGI [51]: 29.4 µM
TGI [52]: > 100 µM
TGI [53]: 19.7 µM
TGI [54]: 33.8 µM
TGI [55]: 30.7 µM
